Measured values from patent US5167616A, “Iontophoretic delivery method” (priority 1989, dated 1992).
Where “and” joins values, the source holds several entries; their conditions need not be identical. Equal entries are not always repeated.

Experiment: Iontophoretic transdermal flux of metoclopramide through human cadaver skin (heat-stripped epidermis, two-compartment permeation test cell)
Assay type: in vitro ADME
Settings: for Ratio of Average Flux-to-Power: power from voltage at 3.75 hours
Method: The transdermal flux of metoclopramide HC1 through samples of human cadaver back skin was measured using a polycarbonate test cell in which the skin sample to be tested is secured between a donor compartment and a receptor compartment. […] The area of the skin samples available for transport was 1.26 cm^2. The test cell device was maintained at a temperature of 32° C. using an aluminum block heat exchanger. An anode comprising a disk of silver foil having a thickness of 0.025 mm was present in the donor compartment while a cathode comprising a sintered disk of powdered silver metal and silver chloride was present in the receptor compartment. Thus, the reduction of silver ions to silver metal occurred at the cathode, while the oxidation of silver to silver ions took place at the anode.
Human cadaver skin was used for the permeation studies. Before securing the skin samples between the donor and the receptor compartment of the test cell, the skin was first heat-stripped by immersing the skin sample in water maintained at 60° C. for 90 seconds allowing the epidermis layer to be separated from the dermis. Circular epidermis samples having a diameter of 2.22 cm were cut using a gasket cutting punch. The epidermis samples were then mounted in the permeation test cell with the stratum corneum side facing the donor compartment.
The electrodes of the test cell were then connected to a Model 363 Potentiostat/Galvanostat, made by EG&G Princeton Applied Research, Princeton, NJ, which supplied a constant level of direct current of 126 μA or 100 μA/cm^2.
The test cell was in operation for four hours with each skin sample. During operation, metoclopramide was iontophoretically delivered from the donor solution through the cadaver skin into the receptor solution. The receptor solution was sampled once every hour over the four hour period. The entire volume (2 ml) of receptor solution was collected and replaced with fresh solution at each sampling point. The metoclopramide concentration in the receptor solution was determined by UV absorbance at 310 nm using a spectrophotometer manufactured by Hewlett Packard, of Palo Alto, CA, Model No. 8452A. Each flux data point shown in FIG. 4 was an average value from three skin specimens, all three specimens having been taken from the same cadaver.
The voltage for each skin sample was monitored throughout the experiment. A representative voltage was measured at 3.75 hours after start of operation for each skin sample and is recorded in Table 2. The power was calculated by multiplying the measured voltage at 3.75 hours by the applied current (i.e., 100 μA/cm^2).
The same equipment and procedures described in Example 1 were used to test human cadaver skin taken from the following sites of the same cadaver tested in Example 1: abdomen, upper arm, forearm, chest and hip/thigh. The average flux of metoclopramide through these skin sites is also plotted in FIG. 4. […] In general, the flux of metoclopramide through back skin was about 50% to 150% higher than the metoclopramide flux through the other tested skin sites.

With `CCN(CC)CCNC(=O)c1cc(Cl)c(N)cc1OC` [metoclopramide] the “Flux through back skin, increase over flux through the other tested skin sites” value was 50-150%, the “Flux through human back skin compared with the other tested skin sites (in words)” value was “significantly higher flux” and the “Average Ratio of Average Flux-to-Power” value (Abdomen skin, mean of 3 samples) was 336 μg/cm^2 · hr .multido. For the same compound, the “Ratio of Average Flux-to-Power” value (Abdomen skin) was 347 μg/cm^2 · hr .multido and 277 μg/cm^2 · hr .multido and 384 μg/cm^2 · hr .multido, the “Average Ratio of Average Flux-to-Power” value (Back skin, mean of 6 samples) was 431 μg/cm^2 · hr .multido and the “Average Ratio of Average Flux-to-Power” value (Chest skin, mean of 3 samples) was 204 μg/cm^2 · hr .multido. For the same compound, the “Ratio of Average Flux-to-Power” value (Chest skin) was 205 μg/cm^2 · hr .multido and 196 μg/cm^2 · hr .multido and 211 μg/cm^2 · hr .multido, the “Average Ratio of Average Flux-to-Power” value (Forearm skin, mean of 3 samples) was 230 μg/cm^2 · hr .multido and the “Average Ratio of Average Flux-to-Power” value (Hip/Thigh skin, mean of 3 samples) was 222 μg/cm^2 · hr .multido. The “Ratio of Average Flux-to-Power” value (Hip/Thigh skin) was 164 μg/cm^2 · hr .multido and 305 μg/cm^2 · hr .multido and 197 μg/cm^2 · hr .multido, the “Average Ratio of Average Flux-to-Power” value (Upper Arm skin, mean of 2 samples) was 307 μg/cm^2 · hr .multido and the “Average ratio of average flux-to-power, ranking of skin sites (in words)” value (back skin, followed by the abdomen and upper arm, Table 2) was “highest average ratio of average flux-to-power”.
